Experimental findings from patent US12122778B2, “Activating pyruvate kinase R” (Novo Nordisk Health Care AG, priority 2018, dated 2024) are described below.

Some results are limits rather than exact numbers.

One assay deals with PKR(G332S) (Homo sapiens, UniProt P30613, G332S). Nature of the assay: Luminescence Biochemical Assay (Kinase Glo Plus), PKR G332S mutant. The following applies: with FBP; for activation at 1.54 µM: 1.54 μM compound, read-out: AC50 LUM KGP FBP % Fold@1.54 μM mean; for AC50: read-out: AC50 LUM KGP FBP AC50 μM gmean (column A); for Emax: read-out: AC50 LUM KGP FBP MAX % FOLD mean.
Sequence of PKR(G332S) (P30613 whole entry G332S): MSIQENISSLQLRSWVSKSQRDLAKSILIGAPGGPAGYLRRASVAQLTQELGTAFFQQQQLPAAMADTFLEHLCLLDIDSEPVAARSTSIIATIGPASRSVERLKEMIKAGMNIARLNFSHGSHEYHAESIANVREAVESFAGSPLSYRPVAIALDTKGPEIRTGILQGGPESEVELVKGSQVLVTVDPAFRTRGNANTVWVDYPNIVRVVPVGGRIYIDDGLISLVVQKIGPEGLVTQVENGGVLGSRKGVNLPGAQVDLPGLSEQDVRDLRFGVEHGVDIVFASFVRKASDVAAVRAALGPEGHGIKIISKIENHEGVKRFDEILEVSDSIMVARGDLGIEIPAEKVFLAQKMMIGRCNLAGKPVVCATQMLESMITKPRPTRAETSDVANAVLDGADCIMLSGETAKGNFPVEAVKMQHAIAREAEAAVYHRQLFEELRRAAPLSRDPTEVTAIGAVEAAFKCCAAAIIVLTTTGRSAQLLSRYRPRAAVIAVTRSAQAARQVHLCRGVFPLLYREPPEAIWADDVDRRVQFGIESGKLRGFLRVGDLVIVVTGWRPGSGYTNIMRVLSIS

The next assay has as its target PKR(R510Q) (Homo sapiens, UniProt P30613, R510Q). The experiment in a line: Luminescence Biochemical Assay (Kinase Glo Plus), PKR R510Q mutant. The note with it: without FBP; for activation at 1.54 µM: 1.54 μM compound, read-out: AC50 LUM KGP woFBP % Fold@1.54 μM mean; for AC50: read-out: AC50 LUM KGP woFBP AC50 μM gmean; for Emax: read-out: AC50 LUM KGP woFBP MAX % FOLD mean.

Another assay concerns the target PKR(wt) (Homo sapiens, UniProt P30613). The experiment in a line: Luminescence Biochemical Assay (Kinase Glo Plus), wild type PKR. The note with it: without FBP; for activation at 1.54 µM: 1.54 μM compound, read-out: AC50 LUM KGP woFBP % Fold@1.54 μM mean; for AC50: read-out: AC50 LUM KGP woFBP AC50 μM gmean; for Emax: read-out: AC50 LUM KGP woFBP MAX % FOLD mean.

Sequence of PKR(wt) (P30613 whole entry): as the sequence (P30613 whole entry G332S) above, with S332G counted along it
Sequence of PKR(R510Q) (P30613 whole entry R510Q): as the sequence (P30613 whole entry G332S) above, with S332G, R510Q counted along it

Regarding `O=C([C@@H](O)c1ccc2c(c1)CNCC2)N1CC2=C(C1)CN(S(=O)(=O)c1ccc(OC(F)F)cc1)C2` (single isomer, unassigned) [Example 11-1], at PKR(G332S), the activation at 1.54 µM is 75 to 250%, the AC50 fell in the range of 1 to 40 µM and the Emax was in the range of 75 to 250%. At PKR(R510Q), the activation at 1.54 µM was in the range of 250 to 50000%, the AC50 is 0.1 to 1 µM and the Emax lay within 250 to 500%. Also, at PKR(wt), the activation at 1.54 µM lay within 75 to 250%, the AC50 was in the range of 1 to 40 µM and the Emax lay in the range of 75 to 250%.

Regarding `O=C([C@H](O)c1ccccc1)N1CC2=C(C1)CN(S(=O)(=O)c1cccnc1)C2` [Example 4-1, (2R)-2-hydroxy-2-phenyl-1-[5-(pyridine-3-sulfonyl)-1H,2H,3H,4H,5H,6H-pyrrolo[3,4-c]pyrrol-2-yl]ethan-1-one], on PKR(G332S), the activation at 1.54 µM is 75 to 250%, the AC50 lay within 0.1 to 1 µM and the Emax was 75 to 250%. Besides, at PKR(R510Q), the activation at 1.54 µM fell in the range of 75 to 250%, the AC50 fell in the range of 1 to 40 µM and the Emax was 250 to 500%. Moreover, on PKR(wt), the activation at 1.54 µM is 75 to 250%, the AC50 is 0.1 to 1 µM and the Emax is 75 to 250%.

In the case of `O=C(Cn1cnnn1)N1CC2=C(C1)CN(S(=O)(=O)c1cccnc1)C2` [Example 18-70, 1-[5-(Pyridine-3-sulfonyl)-1H,2H,3H,4H,5H,6H-pyrrolo[3,4-c]pyrrol-2-yl]-2-(1H-1,2,3,4-tetrazol-1-yl)ethan-1-one], at PKR(G332S), the activation at 1.54 µM lay within 75 to 250%, the AC50 is 1 to 40 µM and the Emax lay within 75 to 250%. In addition, at PKR(R510Q), the activation at 1.54 µM fell in the range of 75 to 250%, the AC50 lay within 1 to 40 µM and the Emax lay within 75 to 250%. On PKR(wt), the activation at 1.54 µM was 75 to 250%, the AC50 lay in the range of 1 to 40 µM and the Emax was 75 to 250%.

On to `COc1ccccc1CNC(=O)N1CC2=C(C1)CN(S(=O)(=O)c1ccc(OC(F)F)cc1)C2` [Example 21-12, 5-[4-(Difluoromethoxy)benzenesulfonyl]-N-[(2-methoxyphenyl)methyl]-1H,2H,3H,4H,5H,6H-pyrrolo[3,4-c]pyrrole-2-carboxamide], for which the values for the activation at 1.54 µM on PKR(G332S), at PKR(R510Q) and at PKR(wt) were 75 to 250%, 250 to 50000% and 250 to 50000%, respectively. In addition, the AC50 on PKR(G332S) is ≤ 0.1 µM; on PKR(R510Q) it was 0.1 to 1 µM; at PKR(wt), 0.1 to 1 µM. Moreover, the values for the Emax on PKR(G332S), on PKR(R510Q) and at PKR(wt) were 75 to 250%, 250 to 500% and 250 to 500%, respectively.

As to `O=C(Cn1cccn1)N1CC2=C(C1)CN(S(=O)(=O)c1ccc(OC(F)F)cc1)C2` [Example 18-21, 1-{5-[4-(Difluoromethoxy)benzenesulfonyl]-1H,2H,3H,4H,5H,6H-pyrrolo[3,4-c]pyrrol-2-yl}-2-(1H-pyrazol-1-yl)ethan-1-one], the activation at 1.54 µM on PKR(G332S), on PKR(R510Q) and at PKR(wt) was 75 to 250% throughout. Further, the AC50 on PKR(G332S) was in the range of 0.1 to 1 µM; on PKR(R510Q), 1 to 40 µM; at PKR(wt), 1 to 40 µM. The results for the Emax at PKR(G332S), on PKR(R510Q) and at PKR(wt) were 75 to 250%, 250 to 500% and 250 to 500%, respectively.

With `O=C(C(O)c1cccc(F)c1)N1CC2=C(C1)CN(S(=O)(=O)c1ccc(OC(F)F)cc1)C2` (stereo not drawn) [Example 18-22, 1-{5-[4-(Difluoromethoxy)benzenesulfonyl]-1H,2H,3H,4H,5H,6H-pyrrolo[3,4-c]pyrrol-2-yl}-2-(3-fluorophenyl)-2-hydroxyethan-1-one], at PKR(G332S), the activation at 1.54 µM was in the range of 75 to 250%, the half-maximal activity concentration (AC50) is ≤ 0.1 µM and the Emax was 75 to 250%. In addition, on PKR(R510Q), the activation at 1.54 µM lay within 250 to 50000%, the AC50 was 0.1 to 1 µM and the Emax is 250 to 500%. Further, at PKR(wt), the activation at 1.54 µM was 75 to 250%, the AC50 fell in the range of 0.1 to 1 µM and the Emax is 250 to 500%.

Take `O=C(C(O)c1ccc(F)c(F)c1)N1CC2=C(C1)CN(S(=O)(=O)c1ccc(OC(F)F)cc1)C2` (stereo not drawn) [Example 18-23, 1-{5-[4-(Difluoromethoxy)benzenesulfonyl]-1H,2H,3H,4H,5H,6H-pyrrolo[3,4-c]pyrrol-2-yl}-2-(3,4-difluorophenyl)-2-hydroxyethan-1-one]: on PKR(G332S), the activation at 1.54 µM is 75 to 250%, the AC50 lay in the range of 0.1 to 1 µM and the Emax lay in the range of 75 to 250%. In addition, at PKR(R510Q), the activation at 1.54 µM lay in the range of 250 to 50000%, the half-maximal activity concentration (AC50) fell in the range of 1 to 40 µM and the Emax lay in the range of 250 to 500%. In addition, at PKR(wt), the activation at 1.54 µM is 75 to 250%, the AC50 lay in the range of 0.1 to 1 µM and the Emax was 250 to 500%.

`O=C(NCc1ccccc1F)N1CC2=C(C1)CN(S(=O)(=O)c1ccc(C(F)(F)F)nc1)C2` [Example 21-40, N-[(2-fluorophenyl)methyl]-5-{[6-(trifluoromethyl)pyridin-3-yl]sulfonyl}-1H,2H,3H,4H,5H,6H-pyrrolo[3,4-c]pyrrole-2-carboxamide]: at PKR(G332S), the activation at 1.54 µM lay within 75 to 250%, the concentration at half-maximal activity (AC50) was 1 to 40 µM and the Emax lay within 75 to 250%. For the same compound, at PKR(R510Q), the activation at 1.54 µM lay in the range of 75 to 250%, the AC50 fell in the range of 0.1 to 1 µM and the Emax fell in the range of 75 to 250%. Besides, at PKR(wt), the activation at 1.54 µM was in the range of 75 to 250%, the AC50 was 0.1 to 1 µM and the Emax was in the range of 75 to 250%.

`Cc1cccc(Cl)c1S(=O)(=O)N1CC2=C(CN(C(=O)[C@@H](O)c3ccccc3)C2)C1` [Example 18-54, (2S)-1-[5-(2-chloro-6-methylbenzenesulfonyl)-1H,2H,3H,4H,5H,6H-pyrrolo[3,4-c]pyrrol-2-yl]-2-hydroxy-2-phenylethan-1-one]: at PKR(G332S), the activation at 1.54 µM was 75 to 250%, the AC50 is 1 to 40 µM and the Emax was 75 to 250%. Besides, at PKR(R510Q), the activation at 1.54 µM fell in the range of 75 to 250%, the AC50 fell in the range of 1 to 40 µM and the Emax lay within 75 to 250%. At PKR(wt), the activation at 1.54 µM lay in the range of 75 to 250%, the AC50 was in the range of 1 to 40 µM and the Emax is 75 to 250%.

On to `COc1ccccc1CNC(=O)N1CC2=C(C1)CN(S(=O)(=O)c1ccc3ncsc3c1)C2` [Example 21-18, 5-(1,3-Benzothiazole-6-sulfonyl)-N-[(2-methoxyphenyl)methyl]-1H,2H,3H,4H,5H,6H-pyrrolo[3,4-c]pyrrole-2-carboxamide], for which, on PKR(G332S), the activation at 1.54 µM was 75 to 250%, the AC50 was ≤ 0.1 µM and the Emax fell in the range of 75 to 250%. At PKR(R510Q), the activation at 1.54 µM is 250 to 50000%, the AC50 was in the range of 0.1 to 1 µM and the Emax was in the range of 250 to 500%. Also, on PKR(wt), the activation at 1.54 µM fell in the range of 250 to 50000%, the AC50 lay in the range of 0.1 to 1 µM and the Emax lay within 250 to 500%.
